From patent US8765773B2, “Substituted hydroxamic acids and uses thereof” (Millennium Pharmaceuticals, Inc., priority 2010, dated 2014)

Target: T1, purified human HDAC6 (Homo sapiens, UniProt Q9UBN7)
T1 construct: purchased BPS Bioscience 5006
T1 sequence (Q9UBN7 1-1215): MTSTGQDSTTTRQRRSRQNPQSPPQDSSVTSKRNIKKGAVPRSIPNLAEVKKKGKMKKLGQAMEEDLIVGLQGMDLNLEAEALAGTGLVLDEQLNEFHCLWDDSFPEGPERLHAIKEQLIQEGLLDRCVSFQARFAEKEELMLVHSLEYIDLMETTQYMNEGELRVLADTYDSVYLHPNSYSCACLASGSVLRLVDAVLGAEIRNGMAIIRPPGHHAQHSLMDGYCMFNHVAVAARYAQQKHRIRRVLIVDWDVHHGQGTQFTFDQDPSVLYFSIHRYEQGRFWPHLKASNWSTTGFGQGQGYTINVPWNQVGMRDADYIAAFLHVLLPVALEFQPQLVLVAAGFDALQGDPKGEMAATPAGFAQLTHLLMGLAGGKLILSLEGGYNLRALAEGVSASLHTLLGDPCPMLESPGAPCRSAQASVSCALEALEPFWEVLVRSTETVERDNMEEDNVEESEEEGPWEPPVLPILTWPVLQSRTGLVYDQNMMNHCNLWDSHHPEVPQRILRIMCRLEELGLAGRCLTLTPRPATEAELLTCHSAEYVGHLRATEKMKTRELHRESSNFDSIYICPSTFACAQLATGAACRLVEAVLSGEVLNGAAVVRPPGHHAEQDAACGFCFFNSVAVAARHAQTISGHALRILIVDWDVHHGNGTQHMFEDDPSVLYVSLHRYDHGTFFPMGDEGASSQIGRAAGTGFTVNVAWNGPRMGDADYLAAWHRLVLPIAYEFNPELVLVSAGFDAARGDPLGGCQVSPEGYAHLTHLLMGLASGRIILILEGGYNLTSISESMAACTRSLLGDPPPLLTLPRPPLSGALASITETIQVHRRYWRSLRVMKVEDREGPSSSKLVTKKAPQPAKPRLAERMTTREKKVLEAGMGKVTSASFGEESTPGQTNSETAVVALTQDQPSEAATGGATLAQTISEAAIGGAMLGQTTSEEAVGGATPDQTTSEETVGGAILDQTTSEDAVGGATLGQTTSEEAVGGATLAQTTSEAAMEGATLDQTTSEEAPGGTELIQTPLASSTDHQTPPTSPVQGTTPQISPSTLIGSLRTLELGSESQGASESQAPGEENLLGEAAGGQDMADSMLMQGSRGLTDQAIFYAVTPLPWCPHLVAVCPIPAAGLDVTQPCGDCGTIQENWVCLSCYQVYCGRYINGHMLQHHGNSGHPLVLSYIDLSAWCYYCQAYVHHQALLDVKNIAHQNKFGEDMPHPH
Assay: HDAC6 Enzyme Assay
Format: biochemical
Conditions: read-out: Percent Inhibition; for inhibition at 0.37 µM: compound concentration 0.37 μM; for inhibition at 0.412 µM: compound concentration 0.412 μM
How it was run: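 Purified human HDAC6 incubated 1 h at 30° C with Ac-Arg-Gly-Lys(Ac)-AMC peptide plus compound or DMSO; stopped with trichostatin A. Deacetylated product trypsin-digested, released AMC read by fluorescence (Ex 340/Em 460 nm). Percent inhibition at one concentration or IC50 from curves relative to DMSO controls.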

SMILES | inhibition at 0.37 µM [%] | inhibition at 0.412 µM [%]
CC(C)c1cccc(-c2cccc(Cn3cnc4ccc(C(=O)NO)cc4c3=O)c2)c1 [Compound I-182, N-hydroxy-3-[(3′-isopropylbiphenyl-3-yl)methyl]-4-oxo-3,4-dihydroquinazoline-6-carboxamide] | 78.9 | –
CC(C)(C)OC(=O)N1CCC(Cn2ccc3ccc(C(=O)NO)cc3c2=O)CC1 [Compound I-184, tert-butyl 4-{[7-[(hydroxyamino)carbonyl]-1-oxoisoquinolin-2(1H)-yl]methyl}piperidine-1-carboxylate] | – | 88.9
O=C(NO)c1ccc2ncn(Cc3cccc(C(F)(F)F)c3)c(=O)c2c1 [Compound I-185, N-hydroxy-4-oxo-3-[3-(trifluoromethyl)benzyl]-3,4-dihydroquinazoline-6-carboxamide] | – | 95.5
COc1ccc(N(CCCn2ccc3ccc(C(=O)NO)cc3c2=O)C(=O)OC(C)(C)C)cc1 [Compound I-188, tert-butyl {3-[7-[(hydroxyamino)carbonyl]-1-oxoisoquinolin-2(1H)-yl]propyl}(4-methoxyphenyl)carbamate] | – | 94.4
O=C(NO)c1ccc2ccn(CCCOc3ccc4c(c3)OCO4)c(=O)c2c1 [Compound I-191, 2-[3-(1,3-benzodioxol-5-yloxy)propyl]-N-hydroxy-1-oxo-1,2-dihydroisoquinoline-7-carboxamide] | – | 95.5
CN(C)c1nc2cc(C(=O)NO)ccc2c(=O)n1-c1ccccc1 [Compound I-192, 2-(dimethylamino)-N-hydroxy-4-oxo-3-phenyl-3,4-dihydroquinazoline-7-carboxamide] | – | 61.5
O=C(NO)c1ccc2ncn(Cc3ccccn3)c(=O)c2c1 [Compound I-193, N-hydroxy-4-oxo-3-(pyridin-2-ylmethyl)-3,4-dihydroquinazoline-6-carboxamide] | – | 79.1
O=C(NO)c1ccc2c(=O)n(Cc3ccccc3)c(=O)[nH]c2c1 [Compound I-194, 3-benzyl-N-hydroxy-2,4-dioxo-1,2,3,4-tetrahydroquinazoline-7-carboxamide] | – | 36.1
O=C(NO)c1ccc2c(=O)n(-c3ccccc3)c(=O)[nH]c2c1 [Compound I-195, N-hydroxy-2,4-dioxo-3-phenyl-1,2,3,4-tetrahydroquinazoline-7-carboxamide] | – | 16.1
O=C(NO)c1ccc2ccn(CCOc3cccc4c3CCC4)c(=O)c2c1 [Compound I-196, 2-[2-(2,3-dihydro-1H-inden-4-yloxy)ethyl]-N-hydroxy-1-oxo-1,2-dihydroisoquinoline-7-carboxamide] | – | 95.2
Nc1nc2cc(C(=O)NO)ccc2c(=O)[nH]1 [Compound I-199, 2-amino-N-hydroxy-4-oxo-3,4-dihydroquinazoline-7-carboxamide] | – | 42.4
CS(=O)(=O)Nc1cccc(Cn2cnc3ccc(C(=O)NO)cc3c2=O)c1 [Compound I-200, N-hydroxy-3-{3-[(methylsulfonyl)amino]benzyl}-4-oxo-3,4-dihydroquinazoline-6-carboxamide] | 93.3 | –
COc1cc(Cn2ccc3ccc(C(=O)NO)cc3c2=O)cc(OC)c1 [Compound I-202, 2-(3,5-dimethoxybenzyl)-N-hydroxy-1-oxo-1,2-dihydroisoquinoline-7-carboxamide] | – | 96.1
CCN(CC)c1nc2ccc(C(=O)NO)cc2c(=O)n1C [Compound I-203, 2-(diethylamino)-N-hydroxy-3-methyl-4-oxo-3,4-dihydroquinazoline-6-carboxamide] | – | 46.4
CC(C)(C)OC(=O)N1CCC(C(CCn2ccc3ccc(C(=O)NO)cc3c2=O)c2ccc(Cl)cc2)CC1 (centres unmarked) [Compound I-205, tert-butyl 4-{1-(4-chlorophenyl)-3-[7-[(hydroxyamino)carbonyl]-1-oxoisoquinolin-2(1H)-yl]propyl}piperidine-1-carboxylate] | 89.5 | –
NCCn1ccc2ccc(C(=O)NO)cc2c1=O [Compound I-207, 2-(2-aminoethyl)-N-hydroxy-1-oxo-1,2-dihydroisoquinoline-7-carboxamide] | – | 59.5
CCN(CC)Cc1cccc(Cn2ccc3ccc(C(=O)NO)cc3c2=O)c1 [Compound I-208, 2-{3-[(diethylamino)methyl]benzyl}-N-hydroxy-1-oxo-1,2-dihydroisoquinoline-7-carboxamide] | – | 89.9
O=C(NO)c1ccc2c(=O)n(Cc3ccc(F)cc3)cnc2c1 [Compound I-209, 3-(4-fluorobenzyl)-N-hydroxy-4-oxo-3,4-dihydroquinazoline-7-carboxamide] | – | 95.9
O=C(NO)c1ccc2c(=O)[nH]c(COc3ccc(-n4ccnc4)cc3)nc2c1 [Compound I-210, N-hydroxy-2-{[4-(1H-imidazol-1-yl)phenoxy]methyl}-4-oxo-3,4-dihydroquinazoline-7-carboxamide] | – | 80.7

The next lines start with the values.

inhibition at 0.37 µM [%] | inhibition at 0.412 µM [%] | SMILES
– | 67.4 | Cc1nc(-c2ccccc2OCCCn2ccc3ccc(C(=O)NO)cc3c2=O)cs1 [Compound I-183, N-hydroxy-2-{3-[2-(2-methyl-1,3-thiazol-4-yl)phenoxy]propyl}-1-oxo-1,2-dihydroisoquinoline-7-carboxamide]
– | 95.5 | CS(=O)(=O)c1ccc(Cn2ccc3ccc(C(=O)NO)cc3c2=O)cc1 [Compound I-186, N-hydroxy-2-[4-(methylsulfonyl)benzyl]-1-oxo-1,2-dihydroisoquinoline-7-carboxamide]
– | 95.1 | O=C(NO)c1ccc2ccn(Cc3c(F)cccc3Cl)c(=O)c2c1 [Compound I-187, 2-(2-chloro-6-fluorobenzyl)-N-hydroxy-1-oxo-1,2-dihydroisoquinoline-7-carboxamide]
– | 97.2 | O=C(NO)c1ccc2ccn(CCOc3ccc(-c4csnn4)cc3)c(=O)c2c1 [Compound I-189, N-hydroxy-1-oxo-2-{2-[4-(1,2,3-thiadiazol-4-yl)phenoxy]ethyl}-1,2-dihydroisoquinoline-7-carboxamide]
– | 92.9 | O=C(NO)c1ccc2ccn(Cc3ccc(OC(F)(F)F)cc3)c(=O)c2c1 [Compound I-190, N-hydroxy-1-oxo-2-[4-(trifluoromethoxy)benzyl]-1,2-dihydroisoquinoline-7-carboxamide]
– | 96.5 | Cc1ccc(OCCCn2ccc3ccc(C(=O)NO)cc3c2=O)cc1 [Compound I-197, N-hydroxy-2-[3-(4-methylphenoxy)propyl]-1-oxo-1,2-dihydroisoquinoline-7-carboxamide]
– | 96.4 | O=C(NO)c1ccc2ccn(Cc3cc(F)ccc3F)c(=O)c2c1 [Compound I-198, 2-(2,5-difluorobenzyl)-N-hydroxy-1-oxo-1,2-dihydroisoquinoline-7-carboxamide]
– | 88.8 | O=C(NO)c1ccc2ccn(C3c4ccccc4-c4ccccc43)c(=O)c2c1 [Compound I-201, 2-(9H-fluoren-9-yl)-N-hydroxy-1-oxo-1,2-dihydroisoquinoline-7-carboxamide]
– | 98.7 | O=C(NO)c1ccc2ccn(CCOc3ccccc3Cl)c(=O)c2c1 [Compound I-204, 2-[2-(2-chlorophenoxy)ethyl]-N-hydroxy-1-oxo-1,2-dihydroisoquinoline-7-carboxamide]
– | 95.8 | O=C(NO)c1ccc2ccn(Cc3cccc(Cl)c3)c(=O)c2c1 [Compound I-206, 2-(3-chlorobenzyl)-N-hydroxy-1-oxo-1,2-dihydroisoquinoline-7-carboxamide]
– | 92.3 | O=C(NO)c1ccc2ccn(Cc3csc4ccc(Cl)cc34)c(=O)c2c1 [Compound I-211, 2-[(5-chloro-1-benzothien-3-yl)methyl]-N-hydroxy-1-oxo-1,2-dihydroisoquinoline-7-carboxamide]
– | 96.9 | Cc1ccc(OCCn2ccc3ccc(C(=O)NO)cc3c2=O)cc1 [Compound I-212, N-hydroxy-2-[2-(4-methylphenoxy)ethyl]-1-oxo-1,2-dihydroisoquinoline-7-carboxamide]
– | 94 | O=C(NO)c1ccc2ccn(CCNS(=O)(=O)c3ccc(Cl)cc3)c(=O)c2c1 [Compound I-213, 2-(2-{[(4-chlorophenyl)sulfonyl]amino}ethyl)-N-hydroxy-1-oxo-1,2-dihydroisoquinoline-7-carboxamide]
